Results from US20250127813A1, “COMBINATION DRUG” (OTSUKA PHARMACEUTICAL CO., LTD., priority 2021, published 2025).
Entries after “also recorded” stand apart in the source; their conditions may differ. Read-outs that look alike come from different tables or passages of the source.

Tests used:
NALM6-luc2 [1] = tested on: NALM6-luc2
Protocol: 6-week-old NOG mice produced by In-Vivo Science Co., Ltd., were obtained, and tumor cells were intravenously transplanted into the mice at 7 weeks of age to prepare tumor-bearing mice. The day before the transplantation, busulfex (BSF) was intraperitoneally administered at 20 mg/kg. During the breeding period, the mice were housed with 5 mice per group and bred in a P2A breeding room set to a temperature of 24° C. (actual measurement: 19.7 to 25.0° C.), humidity of 50% (actual measurement: 38.6 to 58.5%), and illumination of 12 hours/day (8:00 a.m. to 8:00 p.m.). During the breeding period, the mice were allowed free access to radiation-sterilized solid feed for mice (CL-2, produced by Clea Japan, Inc.) and autoclave-sterilized tap water placed in a water bottle.
CD19 CAR-T cells were intravenously administered once according to the group constitution on the same day as grouping. The IAP antagonist also started to be administered on the same day as grouping and was orally or intravenously administered according to the group constitution table.
The evaluation period was set to 3 to 4 weeks. Grouping and pharmacological evaluation were performed based on tumor luminescence values as determined by IVIS (trademark). Luminescence value measurement by IVIS (trademark) and body weight measurement were performed twice a week.
For NALM6-luc2, after resuspension, a portion of the cell suspension was taken, dead cells were stained with AOPI Staining Solution, and the number of viable cells was counted with a blood cell measuring device. A cell suspension was prepared by diluting the cells with RPMI 1640 to 1×10^7 cells/mL, based on the measurement results of viable cell count of the cells. Similarly, in a low tumor volume system, a cell suspension was prepared by diluting the cells with serum-free RPMI 1640 to achieve a concentration of 1×10^6 cells/mL.
After the mice were retained using a retainer, a cell suspension was transplanted at 1×10^6 cells/0.1 mL/body using a 27G Myjector (1 mL, produced by Terumo Corporation) to the tail vein of each mouse with no anesthesia. In the low tumor volume system, a cell suspension at 1×10^5 cells/0.1 mL/body was transplanted.
In accordance with the dosing regimen shown in FIG. 6, NALM6-luc2 was transplanted the day after treating the […] with busulfex. On the third day after the transplantation, luminescence values were measured using the IVIS (trademark) Lumina X5 In-Vivo imaging system (produced by PerkinElmer, Co., Ltd.). Using the luminous values as an indicator and using SAS software R9.4 (produced by SAS Institute Japan), the mice were divided into groups of 5 mice each by the stratified random sampling method.
1) A suspension of CD19 CAR-T cells was administered to the tail vein at the time of grouping. For the dosage, the number of viable CD19 CAR-T cells was counted and a cell suspension prepared according to the group constitution table was administered once at 0.1 mL/body. For the administration, a Myjector syringe with a 27G needle was used.
5) Birinapant was intraperitoneally administered at a dose of 10 mL/kg according to the group composition table. Tolinapant, LCL161, and AT406 were orally administered at a dose of 10 mL/kg according to the group composition table using a sonde in the same manner. For intraperitoneal administration, an insulin syringe with a 26G needle was used in place of the sonde. For oral administration, a needle was used in place of the sonde to administer each drug.
VivoGlo™-luciferin (produced by Promega) was dissolved in D-PBS(−) to achieve a concentration of 30 mg/mL and then cryopreserved at −20° C. under light-shielded conditions. On the day of measurement, dissolved VivoGlo™-luciferin was diluted with an equivalent amount of D-PBS(−) and stored at room temperature under light-shielded conditions until use for testing. Based on the body weight measured in advance, VivoGlo™-luciferin was intraperitoneally administered in a volume of 10 mL/kg.

NALM6-luc2 [2] = assay: Combination of tolinapant and CD19 CAR-T against a low volume of tumor (NALM6-luc2, NOG mice); format: in vivo, mouse
Excerpt: (§1) For the measurement, IVIS (trademark) Lumina X5 was used.

MM.1S-luc2 = assay: Combination of tolinapant and activated integrin β7 CAR-T in MM.1S-luc2 tumor-bearing NOG mice; format: in vivo, mouse
Protocol: Each mouse was identified with a number attached to the tail of the mouse. During the breeding period, the mice were housed in groups of 5 mice each and bred in a breeding room at a temperature of 24° C.
The evaluation period was set to up to day 14 or day 21. Grouping and pharmacological evaluation were performed using tumor luminescence values as determined by IVIS as an indicator. The luminescence value as determined by IVIS and body weight were measured twice a week.
After grouping, the individuals were identified by marking on the tail of each mouse.
as §1

MDA-MB-231 = details: 16 mg/kg, daily oral administration; References 1 and 2; cited from earlier work
[3] = combined use with CD19 CAR-T, AUC up to day 14
[4] = combined use with CD19 CAR-T, AUC up to day 17
[5] = combined use with CD19 CAR-T, maximum tumor volume (luminescence value)
[6] = tolinapant 16 mg/kg qd po + CD19 CAR-T 1×10^5 cells/body iv

C[C@@H]1CN(CC(=O)N2CC(C)(C)c3nc(CO)c(Cc4ccc(F)cc4)cc32)[C@@H](CN2CCOC[C@H]2C)CN1 [Tolinapant, 1-[6-[(4-fluorophenyl)methyl]-5-(hydroxymethyl)-3,3-dimethyl-2H-pyrrolo[3,2-b]pyridin-1-yl]-2-[(2R,5R)-5-methyl-2-[[(3R)-3-methylmorpholin-4-yl]methyl]piperazin-1-yl]ethanone]
maximum effect / drug efficacy-enhancement effect of combination with tolinapant compared with other IAP antagonists (NALM6-luc2 [1]; combination with CD19 CAR-T, versus AT406, LCL161, birinapant): the combination with tolinapant was superior; also recorded: a higher drug efficacy-enhancement effect than combinations with any other IAP antagonist | t-Test using AUC as an indicator (day 14), Tolinapant versus AT406 (NALM6-luc2 [1]; [3]): <0.05 | t-Test using AUC as an indicator (day 14), Tolinapant versus Birinapant (NALM6-luc2 [1]; [3]): <0.05 | t-Test using AUC as an indicator (day 14), Tolinapant versus LCL161 (NALM6-luc2 [1]; [3]): <0.05 | t-Test using AUC as an indicator (day 17), Tolinapant versus AT406 (NALM6-luc2 [1]; [4]): <0.05 | t-Test using AUC as an indicator (day 17), Tolinapant versus Birinapant (NALM6-luc2 [1]; [4]): <0.05 | t-Test using AUC as an indicator (day 17), Tolinapant versus LCL161 (NALM6-luc2 [1]; [4]): <0.05 | t-Test using AUC as an indicator (day 17), Tolinapant versus AT406 (NALM6-luc2 [1]; combined use with CD19 CAR-T, AUC up to day 17, listed as tolinapant): a significance due to combined use of tolinapant could be observed | t-Test using the maximum tumor volume as an indicator, Tolinapant versus AT406 (NALM6-luc2 [1]; [5]): <0.05 | t-Test using the maximum tumor volume as an indicator, Tolinapant versus Birinapant (NALM6-luc2 [1]; [5]): <0.05 | t-Test using the maximum tumor volume as an indicator, Tolinapant versus LCL161 (NALM6-luc2 [1]; [5]): <0.05 | t-Test using the maximum tumor volume as an indicator, Tolinapant versus AT406 (NALM6-luc2 [1]; combined use with CD19 CAR-T, maximum tumor volume (luminescence value), listed as tolinapant): a significant difference | effect of tolinapant + 1×10^5 cells CD19 CAR-T compared with 1×10^6 cells CD19 CAR-T alone (NALM6-luc2 [1]; [6]): an effect equivalent to the effect achieved by using 1×10^6 cells of CD19 CAR-T alone was observed on day 14; also recorded: better tumor regression was observed on day 14 and thereafter | combination effect of tolinapant and CD19 CAR-T (tumor luminescence value) (NALM6-luc2 [1]; tolinapant 16 mg/kg qd po + CD19 CAR-T 1×10^5 cells/body iv, versus tolinapant only or CD19 CAR-T only): significantly improved effect (p<0.05); also recorded: a significant combination effect was observed on day 7 and thereafter; also recorded: significant, highly reproducible results | efficacy of tolinapant administered alone (NALM6-luc2 [1]; tolinapant alone, 16 mg/kg, daily oral administration): showed no efficacy; also recorded: no effect | reduction in the number of CAR-T cells achieved by the combination (NALM6-luc2 [2]; 2×10^4 cells + tolinapant versus 1×10^6 cells alone, suggested possibility): at least 50 fold | combination effect of tolinapant and CD19 CAR-T on a low volume of tumor (NALM6-luc2 [2]; tolinapant 16 mg/kg qd po + CD19 CAR-T): a strong combination effect was observed | effect of tolinapant + 1×10^5 cells CD19 CAR-T compared with 1×10^6 cells CD19 CAR-T alone (NALM6-luc2 [2]; [6]): an effect equivalent to the effect achieved by using 1×10^6 cells of CD19 CAR-T alone was observed on day 17 | effect of tolinapant + 2×10^4 cells CD19 CAR-T compared with 1×10^6 cells CD19 CAR-T alone (NALM6-luc2 [2]; tolinapant 16 mg/kg qd po + CD19 CAR-T 2×10^4 cells/body iv): an effect equivalent to the effect achieved by using 1×10^6 cells of CD19 CAR-T alone was observed on day 21 | combination effect of tolinapant and aITGB7 CAR-T (tumor luminescence value) (MM.1S-luc2; tolinapant 16 mg/kg po every day + aITGB7 CAR-T 3×10^4 cells/body iv, evaluated for 21 days): A significant combination effect was observed; also recorded: tumor regression was clearly observed on day 11 and thereafter; also recorded: a significant synergistic effect was observed; also recorded: significant, highly reproducible results | effect of tolinapant administered alone on MM.1S (MM) (MM.1S-luc2; tolinapant alone): no effect | efficacy of tolinapant in MDA-MB-231 xenograft mice (MDA-MB-231): exhibited efficacy
